From patent publication US20150231109A1, “COMBINATIONS (CATECHINS AND METHOTREXATE) FOR USE IN THE TREATMENT OF MELANOMAS” (UNIVERSIDAD DE MURCIA, priority 2012, published 2015)
Where two headings read alike, the source gives them in different places.

Assays:
[1] = Pharmacokinetic studies in mice plasma; assay type: in vivo; details: mouse, ip, male C57BL/6 mice, intra-peritoneal MTX 50 mg/kg alone or with TMECG 50 mg/kg
Protocol: Pharmacokinetic studies were performed in male C57BL/6 mice after intra-peritoneal injection of MTX (50 mg/kg) and/or TMECG (50 mg/kg). Animals were anesthetized with CO2, and whole blood samples (˜0.5 mL) were collected via cardiac puncture. Samples for drug quantification were collected from different animals (in triplicate) at 5, 15, and 30 min and at 1, 2, 4, and 6 hr post-dose. Whole blood samples were transferred to lithium heparin blood collection tubes, and then centrifuged at 10,000 rpm for 10 min at 4° C. After plasma deproteinization with 5% trichloroacetic acid (TCA), MTX and TMECG plasma concentrations were calculated by HPLC. Pharmacokinetic parameters were estimated using the WinNonlin software package (WinNonlin Professional version 5.1., Pharsight Corporation, CA). WinNonlin model 200 was used for the non-compartmental analysis of the concentration-time data. The area under the plasma concentration-time curve (AUClast) from time 0 to the last point (tlast) with measurable concentration (Clast) was estimated using a linear trapezoidal approximation (AUClast). The elimination half-life (t1/2) was calculated as ln2/kel, where kel (elimination rate constant) was estimated using least squares regression analysis of the concentration-time data obtained during the terminal log-linear elimination phase. The maximum plasma concentrations (Cmax) were estimated directly from the data, with tmax being defined as the time of the first occurrence of Cmax.

MITF = experiment: ChIP assay, occupancy of MITF on TYR and Pmel17 genes in SK-MEL-28 cells; assay type: cell-based; details: Homo sapiens, SK-MEL-28, MTX 4 h
Protocol: F, Chromatin immunoprecipitation on TYR and Pmel17 genes of control and MTX-treated (4 h, 1 μM) SK-MEL-28 cells with qRT-PCR after immunoprecipitation with IgG, or MITF and HDAC3 antibodies.
The ChIP assay was performed with the Magna ChIP™ G kit from Millipore according to the manufacturer's instructions. […] The cross-linked chromatin was then used for immunoprecipitation with MITF antibody, HDAC3 antibody (positive control) or mouse IgG (negative control). DNA from lysates prior to immunoprecipitation was used as positive input controls.

[2] = tested on: B16/F10 primary splenic tumors; experiment: Primary spleen tumors after intrasplenic injection of luciferase-tagged B16/F10 cells; assay type: in vivo, mouse
Protocol: C, Luciferase imaging of control and MTX/TMECG-treated mice 12 days post-tumor cell injection. Beetle luciferin (120 mg/kg of mouse) was injected intraperitoneally. The values (means±s.d.) are representative of three independent experiments. *P=0.007; **P=0.002. […] Xenograft tumors treated with DMSO (vehicle) or MTX/TMECG (1 mg/kg/day and 50 mg/kg/day, respectively) over 14-days. […] Representative images taken from two independent experiments (n=5 for each experiment). Scale bar=200 μm and is applicable to both panels. I, B16/F10 melanoma cells, expressing a luciferase reporter, were injected subcutaneously to mice. Mice were divided in two groups (n=7) and treated with vehicle (DMSO) or MTX/TMECG (1 mg/kg/day and 10 mg/kg/day, respectively) over 21-days. Then, tumors were pooled and dissociated. B16/F10 cells extracted from tumors were examined for their sensitivity to the MTX/TMECG combination (1 μM and 10 μM, respectively) using quantification of the luminescence signal (left panel). […] Scale bar refers to all panels. […] Mice were treated with vehicle, MTX (1 mg/kg/day), and/or TMECG (50 mg/kg/day). […] Scale bar refers to all panels.
A, Luciferase imaging of vehicle (control), MTX, and/or TMECG-treated mice 12 days post-tumor cell injection. Firefly luciferin (120 mg/kg of mouse) was injected intraperitoneally. The values are representative of three independent experiments. […] The number of cells was estimated by extrapolation of the experimental luciferase signal to calibration curves. A straight line with a good linear correlation coefficient (0.998) was obtained by plotting luciferase signal vs number of B16/F10-luc2 cells. Treatment of mice (n=6) started 24 hr after tumor induction (Day 1). For all experiments: *p<0.05 with respect to control mice; #p<0.05 with respect to individual MTX or TMECG treatments.

[3] = tested on: melanoma (SK-MEL-28, G361) cell lines; experiment: MTX/TMECG synergy titration (apoptosis), melanoma cell lines; assay type: cell-based, human; details: apoptosis after 4 days
Protocol: FIGS. 5A-D. The effects of MTX and/or TMECG on the growth of melanoma cell lines. A, Viability was determined by the MTT assay. Cells were treated with vehicle only (•), 10 μM TMECG ( ), 1 μM MTX (▴) or with a combination of 1 μM MTX+10 μM TMECG (▾). Table outlines p53, BRAF, NRAS, and PTEN status with specific amino acid substitutions. […] B, MTX/TMECG synergy test for melanoma and non-melanoma cancer cells in which drugs were combined in 6×6 matrices where the concentration of one drug was increased along each axis. The lowest concentration was 0 and the highest concentration was chosen close to the IC50 for each drug in each assayed cell line. Apoptosis was determined after 4 days of treatment. Data were obtained in triplicate in two independent experiments. […]
The induction of apoptosis was assessed by performing cytoplasmic histone-associated DNA fragmentation using a kit from Roche Diagnostics (Barcelona, Spain). […] The amount of nucleosomes is photometrically quantified at 405 nm by the peroxidase activity retained in the immunocomplexes. Apoptosis was defined as the specific enrichment of mono- and oligonucleosomes in the cytoplasm and was calculated by dividing the absorbance of treated samples by the absorbance of untreated samples after correcting for the number of cells. […]

SMILES: CN(Cc1cnc2nc(N)nc(N)c2n1)c1ccc(C(=O)N[C@@H](CCC(=O)O)C(=O)O)cc1 [MTX, methotrexate]
- AUC ([1]; read-out: MTX parameters AUC): 32 µg·h/mL
- Cmax ([1]; read-out: MTX parameters Cmax): 24.6 µg/mL
- Tmax ([1]; read-out: MTX parameters Tmax): 0.5 h
- half-life ([1]; read-out: MTX parameters t1/2 (converted)): 1.77 h
- receptor occupancy at 1 µM (MITF; untreated cells 1.5%, read-out: occupancy of MITF on the TYR promoter with respect to an input control): 25.2%
- receptor occupancy at 1 µM (MITF; untreated cells 5.4%, read-out: occupancy of MITF on the promoter/enhancer of the Pmel17 gene with respect to an input control): 45.4%
- necrotic areas in splenic tumors ([2]; 14 days treatment, MTX 1 mg/kg/day and/or TMECG 50 mg/kg/day): 4%±2%
- effect on in vivo luciferase signal ([2]; MTX or TMECG alone, 12 days post-tumor cell injection): around 2 fold
- sensitivity to MTX alone, melanoma versus non-melanoma lines [3]: substantially less sensitive
